Where a name gives a salt, the structure may show the parent alone. Read-outs that look alike come from different tables or passages of the source.
Tests used:
[1] = system: MCF-7 (human breast adenocarcinoma) cells; assay: MTT antiproliferative assay, MCF-7; format: cell-based; conditions: MCF7, 72 h, mean ± SD of three independent experiments
Method: (§1) The growth inhibition activity was assessed according to the slightly modified procedure performed at the National Cancer Institute, Developmental Therapeutics Program.
(§2) The examined compounds were dissolved in DMSO (1 × 10^−2 M). The experiments were carried out on seven human tumor cell lines and a normal cell line. The following cell lines were used: HeLa (human cervical adenocarcinoma; purchased from ATCC), CaCo-2 (human colorectal adenocarcinoma), MCF-7 (human breast adenocarcinoma), CCRF-CEM (human acute lymphoblastic leukemia), Hut78 (T-cell lymphoma), THP-1 (acute monocytic leukemia), Burkitt lymphoma (Raji), and MDCK1 (Madine–Darby canine kidney). The MDCK1 cells were used between 24 and 26 passages.
(§3) The adherent cells were cultured in Dulbecco’s modified Eagle medium—DMEM (Gibco, Termo Fisher Scientific Inc., Leicestershire, England, UK), supplemented with 10% heat-inactivated fetal bovine serum (FBS, Gibco, Termo Fisher Scientific Inc., Leicestershire, England, UK), 2 mM glutamine, and 100U/0.1mg penicillin/streptomycin. The cells in suspension were cultured in RPMI 1640 (Gibco, Termo Fisher Scientific Inc., Leicestershire, England, UK) medium, supplemented with 10% FBS (Gibco, Termo Fisher Scientific Inc., Leicestershire, England, UK), 2 mM glutamine, 1 mM sodium pyruvate, and 10 mM HEPES. The cells were grown in a humidified atmosphere under the conditions of 37 °C/5% of CO2 gas in the CO2 incubator (IGO 150 CELLlife^TM, JOUAN, Thermo Fisher Scientific, Waltham, MA, USA).
(§4) The adherent cells (HeLa, CaCo-2, MCF-7, and MDCK-1) were plated in 96-well flat bottom plates (Greiner, Frickenhausen, Austria) at a concentration of 2 × 10^4 cells/mL. The suspension cells (Raji, THP-1, CCRF-CEM and Hut78) were plated in 96-well microtiter plates (Sarstead, Newton, NC, USA) at a concentration of 1 × 10^5 cells/mL. Twenty-four hours later, the cells were treated with test agents in […] and incubated for a further 72 h. The working dilutions were freshly prepared on the day of testing. The solvent was also tested for eventual inhibitory activity by adjusting its concentration to be the same as in the working concentrations. After 72 h of incubation, the cell growth rate was evaluated by performing the MTT assay, which detects dehydrogenase activity in viable cells. For this purpose, upon completion of the incubation period, the growth medium was discarded and 50 μL of MTT was added to each well at a concentration of 5 mg/mL. After four hours of incubation at 37 °C, the water insoluble MTT-formazan crystals were dissolved in 150 μL of dimethyl-sulfoxide (DMSO) for the adherent cells and in 10% SDS with 0.01 mol/L HCl for the cells grown in suspension. The absorbance (OD, optical density) was measured on a microplate reader (iMark, BIO RAD, Hercules, CA, USA) at 595 nm.
(§5) The percentage of live cells was calculated as follows: % = OD (sample) − OD (background)/OD (control) − OD (background) × 100.
(§6) The optical density (OD) of the background for the adherent cells is the OD of the MTT solution and DMSO; the OD (background) for the suspension cells is the OD of the culture medium with MTT and 10% SDS with 0.01 mol/L HCl; the OD (control) is the OD of the cells grown without the tested compounds.
(§7) The calculation of the GI50 value curves and QC analysis was performed using the Excel tools and GraphPadPrism software (La Jolla, CA, USA), v. 5.03. Briefly, individual concentration effect curves are generated by plotting the logarithm of the concentration of the tested compounds (X) vs. the corresponding percent inhibition values (Y) using the least squares fit. The best-fit GI50 values are calculated using log (inhibitor) versus normalized response—variable slope equation, where Y Ľ 100/(1 ţ 10 ((LogIC50 _ X) × HillSlope)). The QC criteria parameters (Z0, S:B, R2, HillSlope) were checked for every GI50 curve.

[2] = system: CCRF-CEM (human acute lymphoblastic leukemia) cells; assay: MTT antiproliferative assay, CCRF-CEM; format: cell-based; conditions: Homo sapiens, CCRF-CEM; 72 h, MTT, mean ± SD of three independent experiments
Method: as §1, §2, §3, §4, §5, §6, §7

[3] = system: CaCo-2 (human colorectal adenocarcinoma) cells; assay: MTT antiproliferative assay, CaCo-2; format: cell-based; conditions: 72 h, mean ± SD of three independent experiments
Method: as §1, §2, §3, §4, §5, §6, §7

[4] = system: Hut78 (T-cell lymphoma) cells; assay: MTT antiproliferative assay, HuT78; format: cell-based, human; conditions: Homo sapiens, HuT78; 72 h, MTT, mean ± SD of three independent experiments
Method: as §1, §2, §3, §4, §5, §6, §7

[5] = system: MDCK1 (Madine–Darby canine kidney) cells; assay: MTT antiproliferative assay, MDCK1; format: cell-based; conditions: mean ± SD of three independent experiments
Method: as §1, §2, §3, §4, §5, §6, §7

[6] = system: HeLa (human cervical adenocarcinoma) cells; assay: MTT antiproliferative assay, HeLa; format: cell-based; conditions: 72 h, mean ± SD of three independent experiments
Method: as §1, §2, §3, §4, §5, §6, §7

[7] = system: Raji (Burkitt lymphoma) cells; assay: MTT antiproliferative assay, Raji; format: cell-based, human; conditions: Homo sapiens, Raji; 72 h, MTT, mean ± SD of three independent experiments
Method: as §1, §2, §3, §4, §5, §6, §7

[8] = system: THP-1 (acute monocytic leukemia) cells; assay: MTT antiproliferative assay, THP-1; format: cell-based, human; conditions: Homo sapiens, THP-1; 72 h, MTT, mean ± SD of three independent experiments; read-out: GI50 THP1
Method: as §1, §2, §3, §4, §5, §6, §7

[9] = system: normal (MDCK1) and tumor cell lines; assay: MTT antiproliferative assay, ranges stated over several cell lines; format: cell-based; conditions: for GI50: MDCK1
Method: as §1, §2, §3, §4, §5, §6, §7

[10] = Canis lupus familiaris, MDCK1, 72 h

Structure (SMILES)	GI50 [1]	GI50 [2]	GI50 [3]	GI50 [4]	GI50 [6]	GI50 [7]	GI50 [8]	GI50 [5, 10]	GI50 ([9]; leukemia and lymphoma cell lines, read-out: GI50 range, leukemia and lymphoma cells)	GI50 ([9]; range over tumor cell lines, read-out: GI50 range, tumor cell lines)	GI50 / inhibitory potential, normal and tumor cells ([9]; over all tested cell lines)	GI50 ([5]; 72 h)
CC(C)NC(=N)c1ccc2[nH]c(-c3ccc(N4CCN(c5ccnc6cc(Cl)ccc56)CC4)cc3)nc2c1 [Compound 8b, 2-(4-(4-(7-chloroquinolin-4-yl)piperazin-1-yl)phenyl)-N-isopropyl-1H-benzo[d]imidazole-5-carboxamidine dihydrochloride]	30.9 ± 2.7 µM	39.6 ± 9.2 µM	100 µM	26.2 ± 1.6 µM	21 ± 1.9 µM	42.9 ± 8.8 µM	> 100 µM	58.8 ± 9.8 µM	–	–	–	–
Clc1ccc2[nH]c(-c3cccc(Nc4ccnc5cc(Cl)ccc45)c3)nc2c1 [Compound 5e, 7-chloro-N-(3-(5-chloro-1H-benzo[d]imidazol-2-yl)phenyl)quinolin-4-amine]	11.1 ± 1.6 µM	15.6 ± 3.4 µM	1.1 ± 0.1 µM	6.7 ± 0.5 µM	11.8 ± 1.2 µM	5.4 ± 2 µM	2.1 ± 0.9 µM	11.4 to 20.4 µM	–	0.4 to 15.6 µM	strong antiproliferative activity	11.4 ± 6.2 µM
CC(C)NC(=N)c1ccc2[nH]c(-c3ccc(C(=O)NCCNc4ccnc5cc(Cl)ccc45)cc3)nc2c1 [Compound 12b, 4-(5-(N-isopropylcarbamimidoyl)-1H-benzo[d]imidazol-2-yl)-N-(2-(7-chloroquinolin-4-ylamino)ethyl)benzamide trihydrochloride]	100 µM	43.3 ± 17.5 µM	38.7 ± 12.4 µM	5.6 ± 2.7 µM	100 µM	12.8 ± 3.7 µM	100 µM	42.9 ± 5.1 µM	–	–	–	–
O=C(NCCNc1ccnc2cc(Cl)ccc12)c1ccc(-c2nc3cc(C4=NCCN4)ccc3[nH]2)cc1 [Compound 12c, N-(2-(7-chloroquinolin-4-ylamino)ethyl)-4-(5-(4,5-dihydro-1H-imidazol-2-yl)-1H-benzo[d]imidazol-2-yl)benzamide trihydrochloride]	100 µM	56.3 ± 9 µM	52 ± 9.1 µM	4.4 ± 1 µM	33.2 ± 5.8 µM	20.8 ± 1.8 µM	> 100 µM	39.6 ± 2.2 µM	–	–	–	–
N=C(N)c1ccc2[nH]c(-c3cccc(Nc4ccnc5cc(Cl)ccc45)c3)nc2c1 [Compound 5a, 2-(3-(7-chloroquinolin-4-ylamino)phenyl)-1H-benzo[d]imidazole-5-carboximidamide trihydrochloride]	> 100 µM	> 100 µM	> 100 µM	> 100 µM	> 100 µM	> 100 µM	> 100 µM	> 100 µM	–	–	–	–

Continued, in another order:

GI50 [1]	GI50 [2]	GI50 [3]	GI50 [4]	GI50 [6]	GI50 [7]	GI50 [8]	Structure (SMILES)	GI50 [5, 10]	GI50 ([9]; leukemia and lymphoma cell lines, read-out: GI50 range, leukemia and lymphoma cells)	GI50 ([9]; range over tumor cell lines, read-out: GI50 range, tumor cell lines)	GI50 / inhibitory potential, normal and tumor cells ([9]; over all tested cell lines)	GI50 ([5]; 72 h)
30.2 ± 4.7 µM	> 50 µM	5.9 ± 0.7 µM	> 100 µM	8.2 ± 1.9 µM	> 100 µM	76.3 ± 0.5 µM	O=c1[nH]cc(F)c(=O)[nH]1 [Compound 5-FU, 5-Fluorouracil, reference compound]	74 ± 3.1 µM	–	–	–	–
84 ± 7.7 µM	41 ± 0.5 µM	> 100 µM	15.6 ± 9.8 µM	100 µM	13.4 ± 2.6 µM	22.3 ± 7.4 µM	Clc1ccc2[nH]c(-c3ccc(N4CCN(c5ccnc6cc(Cl)ccc56)CC4)cc3)nc2c1 [Compound 8e, 7-chloro-4-(4-(4-(5-chloro-1H-benzo[d]imidazol-2-yl)phenyl)piperazin-1-yl)quinoline]	2.7 ± 0.3 µM	13.4 to 41 µM	–	–	–
39.1 ± 5.6 µM	20 ± 6.8 µM	24.7 ± 6.2 µM	4.1 ± 2 µM	11.1 ± 3.8 µM	8.9 ± 3.3 µM	> 100 µM	N=C(N)c1ccc2[nH]c(-c3ccc(C(=O)NCCNc4ccnc5cc(Cl)ccc45)cc3)nc2c1 [Compound 12a, 4-(5-carbamimidoyl-1H-benzo[d]imidazol-2-yl)-N-(2-(7-chloroquinolin-4-ylamino)ethyl)benzamide trihydrochloride]	21.6 ± 3.2 µM	–	–	–	–
24.8 ± 2.2 µM	25.4 ± 11.5 µM	100 µM	27.6 ± 4.7 µM	41.8 ± 8.4 µM	43.9 ± 16.2 µM	71.3 ± 11.4 µM	Clc1ccc2c(N3CCN(c4ccc(-c5nc6cc(C7=NCCN7)ccc6[nH]5)cc4)CC3)ccnc2c1 [Compound 8c, 7-chloro-4-(4-(4-(5-(4,5-dihydro-1H-imidazol-2-yl)-1H-benzo[d]imidazol-2-yl)phenyl)piperazin-1-yl)quinoline dihydrochloride]	30.1 ± 5 µM	–	–	–	–
> 100 µM	> 100 µM	> 100 µM	41.8 ± 8.2 µM	> 100 µM	> 100 µM	> 100 µM	CC(C)NC(=N)c1ccc2[nH]c(-c3cccc(Nc4ccnc5cc(Cl)ccc45)c3)nc2c1 [Compound 5b, 2-(3-(7-chloroquinolin-4-ylamino)phenyl)-N-isopropyl-1H-benzo[d]imidazole-5-carboximidamide trihydrochloride]	> 100 µM	–	–	–	–
20.7 ± 8.6 µM	32.1 ± 3.8 µM	> 100 µM	20.2 ± 6.1 µM	36.3 ± 9.6 µM	37.7 ± 8.6 µM	> 100 µM	N=C(N)c1ccc2[nH]c(-c3ccc(N4CCN(c5ccnc6cc(Cl)ccc56)CC4)cc3)nc2c1 [Compound 8a, 2-(4-(4-(7-chloroquinolin-4-yl)piperazin-1-yl)phenyl)-1H-benzo[d]imidazole-5-carboxamidine dihydrochloride]	42.7 ± 10.8 µM	–	–	–	–
> 100 µM	> 100 µM	> 100 µM	66.2 ± 14.6 µM	> 100 µM	> 100 µM	> 100 µM	Clc1ccc2c(Nc3cccc(-c4nc5cc(C6=NCCN6)ccc5[nH]4)c3)ccnc2c1 [Compound 5c, 7-chloro-N-(3-(5-(4,5-dihydro-1H-imidazol-2-yl)-1H-benzo[d]imidazol-2-yl)phenyl)quinolin-4-amine trihydrochloride]	> 100 µM	–	–	–	–

Source: paper PMC9866588, “Novel 7-Chloro-4-aminoquinoline-benzimidazole Hybrids as Inhibitors of Cancer Cells Growth: Synthesis, Antiproliferative Activity, in Silico ADME Predictions, and Docking” (Molecules, 2023)
